Laboratory results from patent US20070128217A1 (priority 2003, published 2007).

Columns and labels:
[1] = test system: rabbit serum obtained by immunizing a rabbit with the SARS-CoV strain Frankfurt 1; format: binding; design: Binding of a rabbit serum to linear peptides / Binding of a rabbit serum to looped peptides / Rabbit serum linear peptides / Rabbit serum looped peptides / Binding of a rabbit serum to linear peptides of protein N of SARS-CoV Urbani (Rabbit serum linear peptides) / Binding of a rabbit serum to looped/cyclic peptides of protein N of SARS-CoV Urbani (Rabbit serum looped peptides): unit not given here
[2] = test system: control sera (pooled serum of ten healthy LUMC hospital workers; commercial negative donor pooled serum from the Dutch bloodbank); format: binding, human; design: Binding of Control serum LUMC to linear peptides / Binding of Control serum Blood-bank to linear peptides / Binding of Control serum LUMC to looped peptides / Binding of Control Serum Blood-Bank to Looped peptides / Binding of Control serum LUMC to linear peptides of the protein M of SARS-CoV Urbani / Binding of Control serum Blood-bank to linear peptides of the protein M of SARS-CoV Urbani / Binding of Control serum LUMC to looped peptides of the protein M of SARS-CoV Urbani / Binding of Control Serum Blood-Bank to Looped peptides of the protein M of SARS-CoV Urbani: unit not given here
[3] = test system: antibodies in sera from SARS patients (sera 1a, 1b, 2, 6, 37, 62, London, SARS-yellow, SARS-green); format: binding, human; design: Binding of serum 6 to linear peptides of protein X1 of SARS-CoV Urbani / Binding of serum 37 to linear peptides of protein X1 of SARS-CoV Urbani / Binding of serum 6 to looped/cyclic peptide (PEPSCAN-ELISA) / Binding of serum 37 to looped/cyclic peptide (PEPSCAN-ELISA) / Binding of serum 37 to looped/cyclic peptides of protein X1 of SARS-CoV Urbani / Binding of serum 6 to linear peptides of protein X2 / Binding of serum 37 to linear peptides of protein X2 / Binding of serum 37 to looped/cyclic peptides of protein X2 of SARS-CoV Urbani / Binding of serum 6 to linear peptides of protein M of SARS-CoV Urbani / Binding of serum 37 to linear peptides of protein M of SARS-CoV Urbani / Binding of serum 6 to looped/cyclic peptides of protein M of SARS-CoV Urbani / Binding of serum 37 to looped/cyclic peptides of protein M of SARS-CoV Urbani / Binding of serum 6 to linear peptides of protein X3 of SARS-CoV Urbani / Binding of serum 37 to linear peptides of protein X3 of SARS-CoV Urbani / Binding of serum 37 to looped/cyclic peptides of protein X3 of SARS-CoV Urbani / Binding of serum 6 to linear peptides of protein X4 of SARS-CoV Urbani / Binding of serum 37 to linear peptides of protein X4 of SARS-CoV Urbani / Binding of serum 37 to looped/cyclic peptides of protein X4 of SARS-CoV Urbani / Binding of serum 6 to linear peptides of protein X5 of SARS-CoV Urbani / Binding of serum 37 to linear peptides of protein X5 of SARS-CoV Urbani / Binding of serum 37 to looped/cyclic peptides of protein X5 of SARS-CoV Urbani / Binding of serum 6 to linear peptides of protein N of SARS-CoV Urbani / Binding of serum 37 to linear peptides of protein N of SARS-CoV Urbani / Binding of serum 6 to linear peptide (PEPSCAN-ELISA) / Binding of serum 1a to looped/cyclic peptides of protein N of SARS-CoV Urbani / Binding of serum 1b to looped/cyclic peptides of protein N of SARS-CoV Urbani / Binding of serum 2 to looped/cyclic peptides of protein N of SARS-CoV Urbani / Binding of serum 6 to looped/cyclic peptides of protein N of SARS-CoV Urbani / Binding of serum 37 to looped/cyclic peptides of protein N of SARS-CoV Urbani / Binding of serum 62 to looped/cyclic peptides of protein N of SARS-CoV Urbani / Binding of serum London to looped/cyclic peptides of protein N of SARS-CoV Urbani / Binding of serum SARS-green to looped/cyclic peptides of protein N of SARS-CoV Urbani: unit not given here

| Sequence | Binding of a rabbit serum to linear peptides [1] | Binding of a rabbit serum to looped peptides [1] | Recognition of the peptide by the rabbit serum [1] | Binding of serum 1a to linear peptides of protein X1 of SARS-CoV Urbani [3] | Binding of serum 1a to looped/cyclic peptide (PEPSCAN-ELISA) [3] | Binding of serum 1b to linear peptides of protein X1 of SARS-CoV Urbani [3] | Binding of serum 1b to looped/cyclic peptide (PEPSCAN-ELISA) [3] | Binding of serum 2 to linear peptides of protein X1 of SARS-CoV Urbani [3] | Binding of serum 2 to looped/cyclic peptide (PEPSCAN-ELISA) [3] | Binding of serum 6 to linear peptides of protein X1 of SARS-CoV Urbani [3] | Binding of serum 6 to looped/cyclic peptide (PEPSCAN-ELISA) [3] | Binding of serum 37 to linear peptides of protein X1 of SARS-CoV Urbani [3] | Binding of serum 37 to looped/cyclic peptide (PEPSCAN-ELISA) [3] | Binding of serum 62 to linear peptides of protein X1 of SARS-CoV Urbani [3] | Binding of serum 62 to looped/cyclic peptide (PEPSCAN-ELISA) [3] | Binding of serum London to linear peptides of protein X1 of SARS-CoV Urbani [3] | Binding of serum London to looped/cyclic peptide (PEPSCAN-ELISA) [3] | Binding of serum SARS-green to linear peptides of protein X1 of SARS-CoV Urbani [3] | Binding of serum SARS-green to looped/cyclic peptide (PEPSCAN-ELISA) [3] | Binding of serum SARS-yellow to linear peptides of protein X1 of SARS-CoV Urbani [3] | also measured |
| --- | --- | --- | --- | --- | --- | --- | --- | --- | --- | --- | --- | --- | --- | --- | --- | --- | --- | --- | --- | --- | --- |
| DGISTPKLKEDYQIG | 0.1 | 0.4 |  |  |  |  |  |  |  |  |  |  |  |  |  |  |  |  |  |  | Binding of Control Serum Blood-Bank to Looped peptides [2]: 0.3; Binding of Control serum Blood-bank to linear peptides [2]: 0.5; Binding of Control serum LUMC to linear peptides [2]: 0.6; Binding of Control serum LUMC to looped peptides [2]: 0.3 |
| DNGTITVEELKQLLE |  |  | recognized |  |  |  |  |  |  |  |  |  |  |  |  |  |  |  |  |  | Binding of Control Serum Blood-Bank to Looped peptides of the protein M of SARS-CoV Urbani [2]: 0.4; Binding of Control serum Blood-bank to linear peptides of the protein M of SARS-CoV Urbani [2]: 0.7; Binding of Control serum LUMC to linear peptides of the protein M of SARS-CoV Urbani [2]: 0.8; Binding of Control serum LUMC to looped peptides of the protein M of SARS-CoV Urbani [2]: 0.7 |
| DNKFALTCTSTHFAF |  |  |  |  |  |  |  |  |  |  |  |  |  |  |  |  |  |  |  |  | Rabbit serum linear peptides [1]: 0.7; Rabbit serum looped peptides [1]: 0.6; Binding of Control Serum Blood-Bank to Looped peptides [2]: 0.6; Binding of Control serum Blood-bank to linear peptides [2]: 0.7; Binding of Control serum LUMC to linear peptides [2]: 0.6; Binding of Control serum LUMC to looped peptides [2]: 0.8 |
| TKIIALNKRWQLALY |  |  | recognized | 0.7 | 0.6 | 0.5 | 0.4 | 0.6 | 0.5 | 1.0 | 0.5 | 0.7 | 0.6 | 0.7 | 0.6 | 0.3 | 0.3 | 0.2 | 0.3 | 0.5 | Binding of serum SARS-yellow to looped/cyclic peptide (PEPSCAN-ELISA) [3]: 0.5 |
| TTVYHITVSQIQLSL | 0.7 | 0.4 |  |  |  |  |  |  |  |  |  |  |  |  |  |  |  |  |  |  | Binding of serum 1a to linear peptides of protein X2 [3]: 0.7; Binding of serum 1a to looped/cyclic peptides of protein X2 of SARS-CoV Urbani [3]: 0.5; Binding of serum 1b to linear peptides of protein X2 [3]: 0.5; Binding of serum 1b to looped/cyclic peptides of protein X2 of SARS-CoV Urbani [3]: 0.5; Binding of serum 2 to linear peptides of protein X2 [3]: 0.5; Binding of serum 2 to looped/cyclic peptides of protein X2 of SARS-CoV Urbani [3]: 0.3; Binding of serum 6 to linear peptides of protein X2 [3]: 0.5; Binding of serum 6 to looped/cyclic peptides of protein X2 of SARS-CoV Urbani [3]: 0.3; Binding of serum 37 to linear peptides of protein X2 [3]: 0.7; Binding of serum 37 to looped/cyclic peptides of protein X2 of SARS-CoV Urbani [3]: 0.4; Binding of serum 62 to linear peptides of protein X2 [3]: 0.6; Binding of serum 62 to looped/cyclic peptides of protein X2 of SARS-CoV Urbani [3]: 0.5; Binding of serum London to linear peptides of protein X2 [3]: 0.4; Binding of serum London to looped/cyclic peptides of protein X2 of SARS-CoV Urbani [3]: 0.2; Binding of serum SARS-green to linear peptides of protein X2 [3]: 0.1; Binding of serum SARS-green to looped/cyclic peptides of protein X2 of SARS-CoV Urbani [3]: 0.2; Binding of serum SARS-yellow to linear peptides of protein X2 [3]: 0.8; Binding of serum SARS-yellow to looped/cyclic peptides of protein X2 of SARS-CoV Urbani [3]: 0.4 |
| VFQSATKIIALNKRW |  |  | recognized | 0.8 | 0.5 | 0.6 | 0.4 | 0.6 | 0.4 | 0.6 | 0.6 | 0.7 | 0.4 | 0.8 | 0.6 | 0.3 | 0.3 | 0.2 | 0.2 | 0.5 | Binding of serum SARS-yellow to looped/cyclic peptide (PEPSCAN-ELISA) [3]: 0.2 |
| WQLALYKGFQFICNL | 0.5 | 0.6 |  | 0.6 | 0.6 | 0.2 | 0.3 | 0.4 | 0.4 | 0.5 | 1.3 | 0.3 | 0.5 | 0.4 | 0.5 | 0.2 | 1.5 | 0.3 | 0.3 | 0.4 | Binding of serum SARS-yellow to looped/cyclic peptide (PEPSCAN-ELISA) [3]: 0.5 |
